Reference: publication PMC12892976, “Alkylation-based optimization of antifungal FPPS inhibitors yields a potent, broad-spectrum lipophilic zoledronate derivative” (mBio, 2025)
In brackets after ≈: the same amount, converted by molar mass.

Assays:
Aspergillus fumigatus [1] = assay: checkerboard drug interaction (FICI, MICc); assay type: cell-based; conditions: for FICI: Aspergillus fumigatus;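 as to all read-outs here: simplified diagonal checkerboard screen pairing antifungals with FPPS inhibitors against Aspergillus fumigatus, with FICI calculated under the Loewe additivity model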
Protocol: (§1) Drug interactions between antifungals and FPPS inhibitors were investigated using a simplified checkerboard diagonal screening method ([45]). […] FICIs were determined according to the Loewe additivity model ([17]).

Aspergillus fumigatus [2] = assay: MIC/MFC broth microdilution (CLSI); conditions: ATCC204305
Protocol: (§2) Antifungal susceptibility was determined by broth microdilution according to the CLSI guidelines described in M27-Ed4 ([16]). […] MFC was determined by back-plating drug-treated cultures from MIC broths onto SDA plates. The MFC was defined as the lowest concentration from which no colonies could be cultured.

Candida albicans = assay: checkerboard drug interaction (FICI, MICc); assay type: cell-based; conditions: for INH FD (MIC-MICc fold decrease): fold decrease of inhibitor MIC;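 as to all read-outs here: antifungal plus FPPS inhibitor combinations on Candida albicans tested by a simplified diagonal checkerboard screen, with FICI calculated under the Loewe additivity model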
Protocol: as §1

Trichophyton rubrum = assay: MIC/MFC broth microdilution (CLSI)
Protocol: as §2

Saccharomyces cerevisiae [3] = assay: MIC/MFC broth microdilution (CLSI); assay type: cell-based; conditions: Saccharomyces cerevisiae S288c
Protocol: as §2

[4] = tested on: Cryptococcus deuterogattii; assay: MIC/MFC broth microdilution (CLSI);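 also: broth microdilution per CLSI M27-Ed4. MFC is the lowest concentration yielding no colonies when MIC broths are subcultured onto SDA plates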
Protocol: as §2

Cryptococcus neoformans = assay: checkerboard drug interaction (FICI, MICc); assay type: cell-based; conditions: for INH FD (MIC-MICc fold decrease): fold decrease of inhibitor MIC;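 as to all read-outs here: antifungal plus FPPS inhibitor pairs tested against Cryptococcus neoformans by simplified diagonal checkerboard screening, FICI computed under the Loewe additivity model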
Protocol: as §1

Aspergillus parafelis = assay: MIC broth microdilution (CLSI); assay type: cell-based; conditions: Aspergillus parafelis DTO 341-F2
Protocol: Antifungal susceptibility was determined by broth microdilution according to the CLSI guidelines described in M27-Ed4 ([16]).

Aspergillus flavus = assay: checkerboard drug interaction (FICI, MICc); assay type: cell-based; parameters: INH MICc (KET:INH) / INH MICc (FLC:INH): unit not given beside the values;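 also: simplified diagonal checkerboard screen pairing azole antifungals with FPPS inhibitors, FICI calculated under the Loewe additivity model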
Saccharomyces cerevisiae [5] = assay: checkerboard drug interaction (FICI, MICc); assay type: cell-based; parameters: INH MICc / INH MICc (ITR:INH) / INH MICc (KET:INH) / INH MICc (FLC:INH): unit not given beside the values; conditions: for INH FD (MIC-MICc fold decrease): fold decrease of inhibitor MIC;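 as to all read-outs here: simplified diagonal checkerboard screen pairing antifungals with FPPS inhibitors, FICI calculated under the Loewe additivity model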
eight fungal species = assay: checkerboard interaction with azoles, summary across the eight species; assay type: cell-based
Text: Synergy between lipophilic FPPS inhibitors and azole antifungals was investigated by determining the fractional inhibitory concentration index (FICI) (Fig. 2; Table S1 Fig. S1) ([17]). […]. Derivatives PLA9 and 11, and PDA9, 11, and 12 antagonized azoles in C. albicans, C. neoformans, and C. deuterogattii, yet were largely synergistic in C. glabrata and S. cerevisiae. […].

[6] = C. albicans, FLC:INH combination
[7] = C. albicans, ITR:INH combination
[8] = C. albicans, KET:INH combination
[9] = C. neoformans, FLC:INH combination
[10] = C. neoformans, ITR:INH combination
[11] = C. neoformans, KET:INH combination
[12] = S. cerevisiae, FLC:INH combination
[13] = S. cerevisiae, ITR:INH combination
[14] = S. cerevisiae, KET:INH combination

O=P(O)(O)C(O)(Cn1ccnc1)P(=O)(O)O [ZOL, zoledronate]
bisphosphonate MICc (Aspergillus fumigatus [1]; ZOL with CAS): 128 | bisphosphonate MICc (Aspergillus fumigatus [1]; ZOL with FLC): 64 | bisphosphonate MICc (Aspergillus fumigatus [1]; ZOL with ITR): 2 | bisphosphonate MICc (Aspergillus fumigatus [1]; ZOL with KET): 128 | bisphosphonate MICc (Aspergillus fumigatus [1]; ZOL with VOR): 64 | FICI (Aspergillus fumigatus [1]; with FLC): 0.75 | FICI (Aspergillus fumigatus [1]; with ITR): 0.51 | FICI (Aspergillus fumigatus [1]; with KET): 0.75 | MFC (Aspergillus fumigatus [2]): > 128 µg/mL | MIC (Aspergillus fumigatus [2]): > 128 µg/mL | MIC / MEC (Aspergillus fumigatus [2]): >256 µg/mL | FICI (Candida albicans; 5FC:ZOL): 1.13 | FICI (Candida albicans; AMB:ZOL): 1.25 | FICI (Candida albicans; [6]): 0.53 | INH MICc (Candida albicans; C. albicans, FLC:INH combination, MIC of the inhibitor in combination with FLC): 8 | FLC FD (MIC-MICc fold decrease) (Candida albicans; C. albicans, FLC:INH combination, fold decrease of FLC MIC): 2 | INH FD (MIC-MICc fold decrease) (Candida albicans; [6]): 32 | FICI (Candida albicans; [7]): 1.13 | INH MICc (Candida albicans; C. albicans, ITR:INH combination, MIC of the inhibitor in combination with ITR): 32 | ITR FD (MIC-MICc fold decrease) (Candida albicans; C. albicans, ITR:INH combination, fold decrease of ITR MIC): 1 | INH FD (MIC-MICc fold decrease) (Candida albicans; [7]): 8 | FICI (Candida albicans; [8]): 1.13 | INH MICc (Candida albicans; C. albicans, KET:INH combination, MIC of the inhibitor in combination with KET): 32 | KET FD (MIC-MICc fold decrease) (Candida albicans; C. albicans, KET:INH combination, fold decrease of KET MIC): 1 | INH FD (MIC-MICc fold decrease) (Candida albicans; [8]): 8 | FICI (Candida albicans; CAS:ZOL): 2.17 | FICI (Candida albicans; FLC:ZOL): 0.53 | FICI (Candida albicans; ITR:ZOL): 1.13 | FICI (Candida albicans; KET:ZOL): 1.13 | FICI (Candida albicans; VOR:ZOL): 1.46 | bisphosphonate MICc (Candida albicans; ZOL with 5FC): 16 | bisphosphonate MICc (Candida albicans; ZOL with AMB): 32 | bisphosphonate MICc (Candida albicans; ZOL with CAS): 32 | bisphosphonate MICc (Candida albicans; ZOL with FLC): 8 | bisphosphonate MICc (Candida albicans; ZOL with ITR): 32 | bisphosphonate MICc (Candida albicans; ZOL with KET): 32 | bisphosphonate MICc (Candida albicans; ZOL with VOR): 64 | FICI (Candida albicans; with FLC, Candida albicans): 0.53 | FICI (Candida albicans; with ITR, Candida albicans): 1.13 | FICI (Candida albicans; with KET, Candida albicans): 1.13 | MFC (Trichophyton rubrum; Trichophyton rubrum): > 128 µg/mL | MIC (Trichophyton rubrum; Trichophyton rubrum): 128 µg/mL (≈ 470 µM) | MIC / MEC (Trichophyton rubrum; Trichophyton rubrum R-218): 128 µg/mL (≈ 470 µM) | MFC (Saccharomyces cerevisiae [3]): > 128 µg/mL | MIC (Saccharomyces cerevisiae [3]): > 128 µg/mL | MIC / MEC (Saccharomyces cerevisiae [3]): 256 µg/mL (≈ 941 µM) | MFC ([4]; Cryptococcus deuterogattii): 128 µg/mL (≈ 470 µM) | MIC ([4]; Cryptococcus deuterogattii): 128 µg/mL (≈ 470 µM) | MIC / MEC ([4]; Cryptococcus deuterogattii R265): 128 µg/mL (≈ 470 µM) | FICI (Cryptococcus neoformans; 5FC:ZOL): 0.75 | FICI (Cryptococcus neoformans; AMB:ZOL): 2.25 | FICI (Cryptococcus neoformans; [9]): 0.38 | INH MICc (Cryptococcus neoformans; C. neoformans, FLC:INH combination, MIC of the inhibitor in combination with FLC): 8 | FLC FD (MIC-MICc fold decrease) (Cryptococcus neoformans; C. neoformans, FLC:INH combination, fold decrease of FLC MIC): 4 | INH FD (MIC-MICc fold decrease) (Cryptococcus neoformans; [9]): 8 | FICI (Cryptococcus neoformans; [10]): 0.19 | INH MICc (Cryptococcus neoformans; C. neoformans, ITR:INH combination, MIC of the inhibitor in combination with ITR): 4 | ITR FD (MIC-MICc fold decrease) (Cryptococcus neoformans; C. neoformans, ITR:INH combination, fold decrease of ITR MIC): 8 | INH FD (MIC-MICc fold decrease) (Cryptococcus neoformans; [10]): 16 | FICI (Cryptococcus neoformans; [11]): 0.19 | INH MICc (Cryptococcus neoformans; C. neoformans, KET:INH combination, MIC of the inhibitor in combination with KET): 4 | KET FD (MIC-MICc fold decrease) (Cryptococcus neoformans; C. neoformans, KET:INH combination, fold decrease of KET MIC): 8 | INH FD (MIC-MICc fold decrease) (Cryptococcus neoformans; [11]): 16 | FICI (Cryptococcus neoformans; CAS:ZOL): ≥4 | FICI (Cryptococcus neoformans; FLC:ZOL): 0.38 | FICI (Cryptococcus neoformans; ITR:ZOL): 0.19 | FICI (Cryptococcus neoformans; KET:ZOL): 0.19 | FICI (Cryptococcus neoformans; VOR:ZOL): 0.98 | bisphosphonate MICc (Cryptococcus neoformans; ZOL with 5FC): 16 | bisphosphonate MICc (Cryptococcus neoformans; ZOL with AMB): 8 | bisphosphonate MICc (Cryptococcus neoformans; ZOL with CAS): 128 | bisphosphonate MICc (Cryptococcus neoformans; ZOL with FLC): 8 | bisphosphonate MICc (Cryptococcus neoformans; ZOL with ITR): 4 | bisphosphonate MICc (Cryptococcus neoformans; ZOL with KET): 4 | bisphosphonate MICc (Cryptococcus neoformans; ZOL with VOR): 16 | FICI (Cryptococcus neoformans; with FLC, Cryptococcus neoformans): 0.38 | FICI (Cryptococcus neoformans; with ITR, Cryptococcus neoformans): 0.19 | FICI (Cryptococcus neoformans; with KET, Cryptococcus neoformans): 0.19 | MIC / MEC (Aspergillus parafelis): >256 µg/mL | FICI (Aspergillus flavus; 5FC:ZOL): 2 | FICI (FLC:INH) (Aspergillus flavus; A. flavus, Fractional Inhibitory Concentration Index, fluconazole + inhibitor): 0.63 | FICI (ITR:INH) (Aspergillus flavus; A. flavus, Fractional Inhibitory Concentration Index, itraconazole + inhibitor): 1.13 | FICI (KET:INH) (Aspergillus flavus; A. flavus, Fractional Inhibitory Concentration Index, ketoconazole + inhibitor): 1.5 | INH MICc (FLC:INH) (Aspergillus flavus; A. flavus, MIC of the inhibitor in combination with fluconazole): 32 | INH MICc (ITR:INH) (Aspergillus flavus; A. flavus, MIC of the inhibitor in combination with itraconazole): 32 | INH MICc (KET:INH) (Aspergillus flavus; A. flavus, MIC of the inhibitor in combination with ketoconazole): 128 | FLC FD (FLC:INH) (Aspergillus flavus; A. flavus, MIC-MICc fold decrease of fluconazole, negative = increase): 2 | ITR FD (ITR:INH) (Aspergillus flavus; A. flavus, MIC-MICc fold decrease of itraconazole, negative = increase): 1 | KET FD (KET:INH) (Aspergillus flavus; A. flavus, MIC-MICc fold decrease of ketoconazole, negative = increase): 1 | INH FD (FLC:INH) (Aspergillus flavus; A. flavus, MIC-MICc fold decrease of the inhibitor, with fluconazole): 8 | INH FD (ITR:INH) (Aspergillus flavus; A. flavus, MIC-MICc fold decrease of the inhibitor, with itraconazole): 8 | INH FD (KET:INH) (Aspergillus flavus; A. flavus, MIC-MICc fold decrease of the inhibitor, with ketoconazole): 2 | FICI (Aspergillus flavus; AMB:ZOL): 0.63 | FICI (Aspergillus flavus; CAS:ZOL): 1 | FICI (Aspergillus flavus; FLC:ZOL): 0.56 | FICI (Aspergillus flavus; ITR:ZOL): 1.06 | FICI (Aspergillus flavus; KET:ZOL): 1.25 | FICI (Aspergillus flavus; VOR:ZOL): 1 | bisphosphonate MICc (Aspergillus flavus; ZOL with 5FC): 512 | bisphosphonate MICc (Aspergillus flavus; ZOL with AMB): 64 | bisphosphonate MICc (Aspergillus flavus; ZOL with CAS): 256 | bisphosphonate MICc (Aspergillus flavus; ZOL with FLC): 32 | bisphosphonate MICc (Aspergillus flavus; ZOL with ITR): 32 | bisphosphonate MICc (Aspergillus flavus; ZOL with KET): 128 | bisphosphonate MICc (Aspergillus flavus; ZOL with VOR): 256 | FICI (Aspergillus flavus; with FLC, Aspergillus flavus): 0.63 | FICI (Aspergillus flavus; with ITR, Aspergillus flavus): 1.13 | FICI (Aspergillus flavus; with KET, Aspergillus flavus): 1.50 | FICI (Saccharomyces cerevisiae [5]; 5FC:ZOL): 1.25 | FICI (Saccharomyces cerevisiae [5]; AMB:ZOL): 2.5 | FICI (Saccharomyces cerevisiae [5]; CAS:ZOL): 1.01 | FICI (Saccharomyces cerevisiae [5]; FLC:ZOL): 0.38 | FICI (Saccharomyces cerevisiae [5]; ITR:ZOL): 0.5 | FICI (Saccharomyces cerevisiae [5]; KET:ZOL): 0.25 | FICI (Saccharomyces cerevisiae [5]; [12]): 0.38 | FLC MICc (Saccharomyces cerevisiae [5]; S. cerevisiae, FLC:INH combination, MIC of FLC in combination with the inhibitor): 1 | INH MICc (Saccharomyces cerevisiae [5]; S. cerevisiae, FLC:INH combination, MIC of the inhibitor in combination with FLC): 32 | FLC FD (MIC-MICc fold decrease) (Saccharomyces cerevisiae [5]; S. cerevisiae, FLC:INH combination, fold decrease of FLC MIC): 4 | INH FD (MIC-MICc fold decrease) (Saccharomyces cerevisiae [5]; [12]): 8 | FICI (Saccharomyces cerevisiae [5]; [13]): 0.5 | ITR MICc (Saccharomyces cerevisiae [5]; S. cerevisiae, ITR:INH combination, MIC of ITR in combination with the inhibitor): 0.063 | INH MICc (Saccharomyces cerevisiae [5]; S. cerevisiae, ITR:INH combination, MIC of the inhibitor in combination with ITR): 64 | ITR FD (MIC-MICc fold decrease) (Saccharomyces cerevisiae [5]; S. cerevisiae, ITR:INH combination, fold decrease of ITR MIC): 4 | INH FD (MIC-MICc fold decrease) (Saccharomyces cerevisiae [5]; [13]): 4 | FICI (Saccharomyces cerevisiae [5]; [14]): 0.25 | KET MICc (Saccharomyces cerevisiae [5]; S. cerevisiae, KET:INH combination, MIC of KET in combination with the inhibitor): 0.25 | INH MICc (Saccharomyces cerevisiae [5]; S. cerevisiae, KET:INH combination, MIC of the inhibitor in combination with KET): 32 | KET FD (MIC-MICc fold decrease) (Saccharomyces cerevisiae [5]; S. cerevisiae, KET:INH combination, fold decrease of KET MIC): 8 | INH FD (MIC-MICc fold decrease) (Saccharomyces cerevisiae [5]; [14]): 8 | FICI (Saccharomyces cerevisiae [5]; VOR:ZOL): 0.75 | bisphosphonate MICc (Saccharomyces cerevisiae [5]; ZOL with 5FC): 64 | bisphosphonate MICc (Saccharomyces cerevisiae [5]; ZOL with AMB): 128 | bisphosphonate MICc (Saccharomyces cerevisiae [5]; ZOL with CAS): 2 | bisphosphonate MICc (Saccharomyces cerevisiae [5]; ZOL with FLC): 32 | bisphosphonate MICc (Saccharomyces cerevisiae [5]; ZOL with ITR): 64 | bisphosphonate MICc (Saccharomyces cerevisiae [5]; ZOL with KET): 32 | bisphosphonate MICc (Saccharomyces cerevisiae [5]; ZOL with VOR): 64 | FICI (Saccharomyces cerevisiae [5]; with FLC, Saccharomyces cerevisiae): 0.38 | FICI (Saccharomyces cerevisiae [5]; with ITR, Saccharomyces cerevisiae): 0.50 | FICI (Saccharomyces cerevisiae [5]; with KET, Saccharomyces cerevisiae): 0.25 | effect on azole MIC in combination (eight fungal species; across all species tested): consistently reduced the MIC of the azole | antagonism with azole drugs (eight fungal species; any of the azole drugs in any species tested): no antagonism | GM fungal MICc (eight fungal species; geometric mean MIC in combination with azoles): 14.3
